Source: US20250282799A1, “SUBSTITUTED PYRIDO[4,3-d]PYRIMIDINES AS KRAS MODULATORS” (Alterome Therapeutics, Inc., priority 2023, published 2025)

Test system: KRAS G12V dependent lung adenocarcinoma cell line, NCI-H441
Assay: Cellular pERK (Thr202/Tyr204) FRET/HTRF assay
Type: cell-based
Settings: Homo sapiens, NCI-H441, cellular pERK (Thr202/Tyr204) HTRF, NCI-H441 cells
Outline: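 Phospho-ERK1/2 (Thr202/Tyr204) quantified by two-antibody HTRF in lysed NCI-H441 cells. Cells seeded overnight, treated with test compounds for 1 hr at 37 °C against DMSO control, then lysed and detected at room temperature; IC50 obtained by curve fitting.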

| SMILES | IC50 [nM] |
| --- | --- |
| [2H]C([2H])(Oc1nc(N2CCOC[C@@H]3[C@@H](F)[C@@H]32)c2cc(Cl)c(-c3cc(N)c(F)c(C)c3C(F)(F)F)c(F)c2n1)[C@@]12CCCN1C[C@H](F)C2 [Example 191, 5-(6-chloro-8-fluoro-4-((1R,7R,8R)-8-fluoro-5-oxa-2-azabicyclo[5.1.0]octan-2-yl)-2-(((2R,7aS)-2-fluorotetrahydro-1H-pyrrolizin-7a(5H)-yl)methoxy-d2)quinazolin-7-yl)-2-fluoro-3-methyl-4-(trifluoromethyl)aniline] | 500 to 10000 |
| [2H]C([2H])([2H])Oc1c(F)cc(F)c2cc(N)cc(-c3ncc4c(N5CCOC[C@H]6[C@H](F)[C@H]65)nc(OC[C@@]56CCCN5CC(=C)C6)nc4c3F)c12 [Example 192, 6,8-difluoro-4-(8-fluoro-4-((1S,7S,8S)-8-fluoro-5-oxa-2-azabicyclo[5.1.0]octan-2-yl)-2-(((S)-2-methylenetetrahydro-1H-pyrrolizin-7a(5H)-yl)methoxy)pyrido[4,3-d]pyrimidin-7-yl)-5-(methoxy-d3)naphthalen-2-amine] | < 50 |
| [2H]C1([2H])CC[C@@]2(C([2H])([2H])Oc3nc(N4CCOC[C@H]5[C@H](F)[C@H]54)c4cnc(-c5cc(N)cc6ccc(F)c(C#C)c56)c(F)c4n3)C[C@@]([2H])(F)CN12 [Example 193, 5-ethynyl-6-fluoro-4-(8-fluoro-4-((1S,7S,8S)-8-fluoro-5-oxa-2-azabicyclo[5.1.0]octan-2-yl)-2-(((2R,7aS)-2-fluorotetrahydro-1H-pyrrolizin-7a(5H)-yl-2,5,5-d3)methoxy-d2)pyrido[4,3-d]pyrimidin-7-yl)naphthalen-2-amine] | < 50 |
| [2H]C([2H])(Oc1nc(N2CCC(=O)C[C@@H]3[C@H](F)[C@@H]32)c2cnc(-c3cc(N)cc4cc(F)c(F)c(C#C)c34)c(F)c2n1)[C@@]12CCCN1C[C@H](F)C2 [Example 194, (1R,7S,8S)-2-(7-(3-amino-8-ethynyl-6,7-difluoronaphthalen-1-yl)-8-fluoro-2-(((2R,7aS)-2-fluorotetrahydro-1H-pyrrolizin-7a(5H)-yl)methoxy-d2)pyrido[4,3-d]pyrimidin-4-yl)-8-fluoro-2-azabicyclo[5.1.0]octan-5-one] | 50 to 500 |
| [2H]C([2H])(Oc1nc(N2CCC(=O)C[C@H]3[C@H](F)[C@H]32)c2cnc(-c3cc(N)cc4cc(F)c(F)c(C#C)c34)c(F)c2n1)[C@@]12CCCN1C[C@H](F)C2 [Example 195, (1S,7R,8S)-2-(7-(3-amino-8-ethynyl-6,7-difluoronaphthalen-1-yl)-8-fluoro-2-(((2R,7aS)-2-fluorotetrahydro-1H-pyrrolizin-7a(5H)-yl)methoxy-d2)pyrido[4,3-d]pyrimidin-4-yl)-8-fluoro-2-azabicyclo[5.1.0]octan-5-one] | < 50 |
| [2H]C([2H])(Oc1nc(N2CCC(=O)C[C@@H]3[C@@H](F)[C@@H]32)c2cnc(-c3cc(N)cc4cc(F)c(F)c(C#C)c34)c(F)c2n1)[C@@]12CCCN1C[C@H](F)C2 [Example 196, (1R,7S,8R)-2-(7-(3-amino-8-ethynyl-6,7-difluoronaphthalen-1-yl)-8-fluoro-2-(((2R,7aS)-2-fluorotetrahydro-1H-pyrrolizin-7a(5H)-yl)methoxy-d2)pyrido[4,3-d]pyrimidin-4-yl)-8-fluoro-2-azabicyclo[5.1.0]octan-5-one] | < 50 |
| [2H]C([2H])(Oc1nc(N2CCC(=O)C[C@H]3[C@@H](F)[C@H]32)c2cnc(-c3cc(N)cc4cc(F)c(F)c(C#C)c34)c(F)c2n1)[C@@]12CCCN1C[C@H](F)C2 [Example 197, (1S,7R,8R)-2-(7-(3-amino-8-ethynyl-6,7-difluoronaphthalen-1-yl)-8-fluoro-2-(((2R,7aS)-2-fluorotetrahydro-1H-pyrrolizin-7a(5H)-yl)methoxy-d2)pyrido[4,3-d]pyrimidin-4-yl)-8-fluoro-2-azabicyclo[5.1.0]octan-5-one] | 50 to 500 |
| C#Cc1c(F)ccc2cc(O)cc(-c3ncc4c(N5CCOC[C@H]6[C@H](F)[C@H]65)nc(OC[C@]56C[C@@H](F)CN5C[C@@H](CN)C6)nc4c3F)c12 [Example 198, 4-(2-(((2R,6R,7aS)-2-(aminomethyl)-6-fluorotetrahydro-1H-pyrrolizin-7a(5H)-yl)methoxy)-8-fluoro-4-((1S,7S,8S)-8-fluoro-5-oxa-2-azabicyclo[5.1.0]octan-2-yl)pyrido[4,3-d]pyrimidin-7-yl)-5-ethynyl-6-fluoronaphthalen-2-ol] | 50 to 500 |
| [2H]C([2H])(Oc1nc(N2CCOC[C@H]3[C@H](F)[C@H]32)c2cnc(-c3cc(N)cc4ccc(F)c(C=C)c34)c(F)c2n1)[C@@]12CCCN1C[C@H](F)C2 [Example 199, 6-Fluoro-4-(8-fluoro-4-((1S,7S,8S)-8-fluoro-5-oxa-2-azabicyclo[5.1.0]octan-2-yl)-2-(((2R,7aS)-2-fluorotetrahydro-1H-pyrrolizin-7a(5H)-yl)methoxy-d2)pyrido[4,3-d]pyrimidin-7-yl)-5-vinylnaphthalen-2-amine] | < 50 |
| [2H]C([2H])(F)Oc1c(F)ccc2cc(N)cc(-c3ncc4c(N5CCOC[C@H]6[C@H](F)[C@H]65)nc(OC[C@@]56CCCN5CC5(CC5)C6)nc4c3F)c12 [Example 200, 4-(2-(((S)-dihydro-1′H,3′H-spiro[cyclopropane-1,2′-pyrrolizin]-7a′(5′H)-yl)methoxy)-8-fluoro-4-((1S,7S,8S)-8-fluoro-5-oxa-2-azabicyclo[5.1.0]octan-2-yl)pyrido[4,3-d]pyrimidin-7-yl)-6-fluoro-5-(fluoromethoxy-d2)naphthalen-2-amine] | < 50 |
| [2H]C([2H])(Oc1nc(N2CCOC[C@H]3[C@H](F)[C@H]32)c2cnc(-c3cc(N)cc4ccc(F)c(CC)c34)c(F)c2n1)[C@@]12CCCN1C[C@H](F)C2 [Example 201, 5-ethyl-6-fluoro-4-(8-fluoro-4-((1S,7S,8S)-8-fluoro-5-oxa-2-azabicyclo[5.1.0]octan-2-yl)-2-(((2R,7aS)-2-fluorotetrahydro-1H-pyrrolizin-7a(5H)-yl)methoxy-d2)pyrido[4,3-d]pyrimidin-7-yl)naphthalen-2-amine] | < 50 |

More lines, now with the values ahead:

| IC50 [nM] | SMILES |
| --- | --- |
| < 50 | C#Cc1c(F)ccc2cc(N)cc(-c3ncc4c(N5CCOC[C@H]6[C@H](F)[C@H]65)nc(OC[C@]56CC7(CC7)CN5CCC65CC5)nc4c3F)c12 [Example 206, 4-(2-(((R)-Dihydro-5′H-dispiro[cyclopropane-1,1′-pyrrolizine-6′,1″-cyclopropan]-7a′(7′H)-yl)methoxy)-8-fluoro-4-((1S,7S,8S)-8-fluoro-5-oxa-2-azabicyclo[5.1.0]octan-2-yl)pyrido[4,3-d]pyrimidin-7-yl)-5-ethynyl-6-fluoronaphthalen-2-amine] |
| < 50 | C#Cc1c(F)ccc2cc(N)cc(-c3ncc4c(N5CCOC[C@H]6[C@H](F)[C@H]65)nc(OC[C@@]56CC7(CC7)CN5CCC65CC5)nc4c3F)c12 [Example 207, 4-(2-(((S)-dihydro-5′H-dispiro[cyclopropane-1,1′-pyrrolizine-6′,1″- cyclopropan]-7a′(7′H)-yl)methoxy)-8-fluoro-4-((1S,7S,8S)-8-fluoro-5-oxa-2-azabicyclo[5.1.0]octan-2-yl)pyrido[4,3-d]pyrimidin-7-yl)-5-ethynyl-6-fluoronaphthalen-2-amine] |
| < 50 | C#Cc1c(F)ccc2cc(N)cc(-c3ncc4c(N5CCOC[C@H]6[C@H](F)[C@H]65)nc(OC[C@@]56CCCN5C[C@H](F)C6)nc4c3F)c12 [Example 212, 5-Ethynyl-6-fluoro-4-(8-fluoro-4-((1S,7S,8S)-8-fluoro-5-oxa-2-azabicyclo[5.1.0]octan-2-yl)-2-(((2R,7aS)-2-fluorotetrahydro-1H-pyrrolizin-7a(5H)-yl)methoxy)pyrido[4,3-d]pyrimidin-7-yl)naphthalen-2-amine] |
| < 50 | [2H]C([2H])(Oc1nc(N2CCOC[C@H]3[C@H](F)[C@H]32)c2cnc(-c3cc(N)cc4ccc(F)c(C#C)c34)c(F)c2n1)C12CCCN1CCC2 [Example 213, 5-ethynyl-6-fluoro-4-(8-fluoro-4-((1S,7S,8S)-8-fluoro-5-oxa-2-azabicyclo[5.1.0]octan-2-yl)-2-((tetrahydro-1H-pyrrolizin-7a(5H)-yl)methoxy-d2)pyrido[4,3-d]pyrimidin-7-yl)naphthalen-2-amine] |
| < 50 | [2H]C([2H])(Oc1nc(N2CCOC[C@H]3[C@H](F)[C@H]32)c2cnc(-c3cc(N)cc4ccc(F)c(C#C)c34)c(F)c2n1)[C@@]12CCCN1CC(F)(F)C2 [Example 220, 4-(2-(((S)-2,2-difluorotetrahydro-1H-pyrrolizin-7a(5H)-yl)methoxy-d2)-8-fluoro-4-((1S,7S,8S)-8-fluoro-5-oxa-2-azabicyclo[5.1.0]octan-2-yl)pyrido[4,3-d]pyrimidin-7-yl)-5-ethynyl-6-fluoronaphthalen-2-amine] |
| < 50 | C=C1CN2CCC3(CC3)[C@@]2(COc2nc(N3CCOC[C@H]4[C@H](F)[C@H]43)c3cnc(-c4cc(N)c(F)c(C)c4C(F)(F)F)c(F)c3n2)C1 [Example 226, 2-fluoro-5-(8-fluoro-4-((1S,7S,8S)-8-fluoro-5-oxa-2-azabicyclo[5.1.0]octan-2-yl)-2-(((R)-6′-methylenetetrahydrospiro[cyclopropane-1,1′-pyrrolizin]-7a′(5′H)-yl)methoxy)pyrido[4,3-d]pyrimidin-7-yl)-3-methyl-4-(trifluoromethyl)aniline] |
| < 50 | [2H]C([2H])(F)Oc1c(F)ccc2cc(N)cc(-c3ncc4c(N5CCOC[C@H]6[C@H](F)[C@H]65)nc(OC[C@@]56CC7(CC7)CN5CCC65CC5)nc4c3F)c12 [Example 227, 4-(2-(((S)-dihydro-5′H-dispiro[cyclopropane-1,1′-pyrrolizine-6′,1″- cyclopropan]-7a′(7′H)-yl)methoxy)-8-fluoro-4-((1S,7S,8S)-8-fluoro-5-oxa-2-azabicyclo[5.1.0]octan-2-yl)pyrido[4,3-d]pyrimidin-7-yl)-6-fluoro-5-(fluoromethoxy-d2)naphthalen-2-amine] |
